Holding throughout (details): incubation time: 72 h
For experiment [1], the system named is DU-4475. In words: drug sensitivity score (DSS), CellTox Green (DSS (AUC-based score)); higher = stronger drug effect (viability inhibition or cytotoxicity); extreme values may be limits of the assay. In short, it runs like this: (§1)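 Breast cancer cells were seeded into 384-well plates containing compound at 5 concentrations in 10-fold steps over a compound-specific 10,000-fold range and incubated 72 h. After CellTox Green and CellTiter-Glo readings, each plate was normalised to 0.1 % DMSO and a positive kill control. The drug sensitivity score rests on the area under the fitted dose-response curve.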

Experiment [2] concerns CAL-148. The description is as above. In short, it runs like this:
as §1

Experiment [3] has as its system HDQ-P1. In words: normalised viability (% of control), CellTiter-Blue; higher = more viable cells (about 100 = DMSO control). Put shortly:
(§2)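 The reported figure is normalised viability at a single listed concentration of the series. Breast cancer cell lines (20 µl suspension) went onto 384-well plates holding compound in 5 µl medium for 72 h. CellTiter-Blue (2.5 µl, 2 h, 37 °C) was read by fluorescence at 560/590 nm, and each plate was scaled to vehicle at 100 and a positive kill control at 0.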
On the technique in general: The colour change of resazurin is a common sign of viable cells or microbes.

The subject of experiment [4] is CAL-120. The description is as above. In short, it runs like this: as §2
The test system of experiment [5] is MDA-MB-453. In words: normalised viability (% of control), CellTiter-Blue; higher = more viable cells (100 = DMSO, 0 = benzethonium chloride kill control). The method, then:
(§3)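 DSRT, CellTiter-Blue viability, 72 h incubation. Signal is normalised to DMSO and benzethonium chloride controls. Value is the normalised response at dose 1.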

Experiment [6] has as its system CAL-85-1. Described as above. The procedure: as §3
The subject of experiment [7] is MFM-223. The experiment is described as above. The procedure:
as §3

Experiment [8] has as its system DU-4475. The description is as above. The procedure: as §3
Experiment [9] deals with CAL-148. Described as above. The method, then:
as §3

Experiment [10] has as its system HCC1143. The description is as above. The procedure:
as §3

In experiment [11] the test system is CAL-51. Described as above. The method, then: as §3
Experiment [12] has as its system BT-549. The experiment is described as above. The method, then:
as §3

Experiment [13] has as its system HDQ-P1. The description is as above. The procedure:
as §3

The test system of experiment [14] is MDA-MB-231. The description is as above. The method, then:
as §3

Experiment [15] relates to HCC1937. Described as above. The method, then: as §3
For experiment [16], the system named is BT-474. The experiment is described as above. The procedure:
as §3

The test system of experiment [17] is SK-BR-3. The experiment is described as above. The method, then: as §3
The test system of experiment [18] is CAL-120. The experiment is described as above. The procedure:
as §3

The test system of experiment [19] is MDA-MB-436. The experiment is described as above. The method, then:
as §3

In experiment [20] the test system is HCC1599. Described as above. The method, then:
as §3

The subject of experiment [21] is Hs578T. Described as above. The procedure: as §3
Experiment [22] relates to MDA-MB-468. The experiment is described as above. The procedure:
as §3

In experiment [23] the test system is MDA-MB-453. The experiment can be described thus: normalised viability (% of control), CellTiter-Blue; higher = more viable cells (about 100 = DMSO control). The method, then: (§4)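 DSRT, CellTiter-Blue viability, 72 h incubation. Signal is normalised to DMSO and benzethonium chloride controls. Value is the normalised response at dose 9.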
The subject of experiment [24] is CAL-85-1. The description is as above. The procedure:
as §4

Experiment [25] relates to DU-4475. The experiment is described as above. The method, then: as §4
The test system of experiment [26] is CAL-148. The experiment is described as above. The procedure:
as §4

Experiment [27] deals with CAL-51. The description is as above. The procedure:
as §4

The subject of experiment [28] is HDQ-P1. Described as above. The procedure:
as §4
The source holds these as a separate data set.

Structures are written as SMILES.

Drug sensitivity score and normalised viability data for three compounds are collected here from the supplement of paper PMC4862054.

Take `COc1ccccc1S(=O)(=O)Nc1ccc2c(c1)CN(C)C(=O)N2` [PFI-1]: the drug sensitivity score in [1] and in [2] was 0 each time.

Take `CC(C)(C#N)c1cc(Cn2cncn2)cc(C(C)(C)C#N)c1` [Anastrozole]: the normalised viability in experiment [3] (30 nM) stood at 89.2%; in experiment [4] (1000 nM), 89.5%; in [5] (1 nM), 98.4%; in experiment [6] (1 nM), 94.1%; in [7] (1 nM) it was 98.8%; in experiment [8] (1 nM) it was 94%. The normalised viability in [9] (1 nM) is 99%; in experiment [10] (1 nM), 83.4%; in experiment [11] (1 nM) it was 108%; in experiment [12] (1 nM), 122%; in experiment [13] (1 nM), 101%; in experiment [14] (1 nM), 91.7%. Further, the normalised viability was found to be 94.6% in experiment [15] (1 nM); 73.5% in [16] (1 nM); 97.7% in [17] (1 nM); 88.8% in [18] (1 nM); 99% in [19] (1 nM); 107% in experiment [20] (1 nM). The normalised viability in experiment [21] (1 nM) stood at 97.2%; in [22] (1 nM), 97.9%; in [23] (10000 nM), 79.8%; in [24] (10000 nM), 93.9%; in experiment [25] (10000 nM), 112%; in experiment [26] (10000 nM) it was 94.2%. Further, the values for the normalised viability in [27] (10000 nM) and in experiment [28] (10000 nM) were 104% and 98.6%, respectively. The drug sensitivity score in experiment [1] and in [2] was 0 throughout.

Turning to `Cn1c(=O)n(-c2ccc(C(C)(C)C#N)cc2)c2c3cc(-c4cnc5ccccc5c4)ccc3ncc21` [NVP-BEZ235], the normalised viability is 94.5% in [3] (3 nM); 17.6% in [4] (100 nM); 96.8% in experiment [5] (0.1 nM); 96.9% in experiment [6] (0.1 nM); 99.3% in experiment [7] (0.1 nM); 129% in experiment [8] (0.1 nM). The normalised viability is 114% in experiment [9] (0.1 nM); 98.9% in [10] (0.1 nM); 102% in experiment [11] (0.1 nM); 112% in experiment [12] (0.1 nM); 113% in experiment [13] (0.1 nM); 111% in [14] (0.1 nM). Further, the normalised viability was found to be 95.9% in experiment [15] (0.1 nM); 105% in [16] (0.1 nM); 100% in experiment [17] (0.1 nM); 96.6% in experiment [18] (0.1 nM); 119% in experiment [19] (0.1 nM); 125% in experiment [20] (0.1 nM). The normalised viability is 105% in experiment [21] (0.1 nM); 108% in experiment [22] (0.1 nM); 13.8% in experiment [23] (1000 nM); 27.7% in experiment [24] (1000 nM); 5.52% in experiment [25] (1000 nM); 0.2% in [26] (1000 nM). The normalised viability in experiment [27] (1000 nM) was 8.61%; in experiment [28] (1000 nM) it was 34%.
